According to patent US5656630A, “Method of combating fungus” (American Cyanamid Company, priority 1993, dated 1997):
In brackets after ≈: the same amount, converted by molar mass. Like-named read-outs stand apart in the source and are kept apart here.

What was measured:
Phytophthora infestans [1] = conditions: sunlight excluded; only the Z-isomer; reported in Brighton Crop Protection Conference, 1988, 17-24; cited from earlier work
Phytophthora infestans [2] = type: in vivo, Phytophthora infestans (on tomato plants cv Prof. Rudloff); conditions: soil drench 2 days before infection, tomato
Water solubility = type: physicochemical
tomato plants = conditions: in vivo
[3] = 6.25 ppm active ingredient (0.11 kg/ha)
[4] = 12.5 ppm active ingredient (0.2 kg/ha)
[5] = 25 ppm active ingredient (0.44 kg/ha)
[6] = 50 ppm active ingredient (0.88 kg/ha)
[7] = 100 ppm active ingredient (1.76 kg/ha)

SMILES	fungitoxicity in vitro (Phytophthora infestans [1])	Activity in % (ABBOTT formula, diseased leaf area) (Phytophthora infestans [2]; [3]) [%]	Activity in % (ABBOTT formula, diseased leaf area) (Phytophthora infestans [2]; [4]) [%]	Activity in % (ABBOTT formula, diseased leaf area) (Phytophthora infestans [2]; [5]) [%]	Activity in % (ABBOTT formula, diseased leaf area) (Phytophthora infestans [2]; [6]) [%]	Activity in % (ABBOTT formula, diseased leaf area) (Phytophthora infestans [2]; [7]) [%]	solubility (Water solubility) [µg/mL]	initial concentrations in the leaves, Z-isomer relative to E-isomer (tomato plants)
COc1ccc(/C(=C\C(=O)N2CCOCC2)c2ccc(Cl)cc2)cc1OC [Z-isomer, Z-isomer of 4-[3-(4-chlorophenyl)-3-(3,4-dimethoxyphenyl)acryloyl]morpholine]	fungitoxic	100	100	100	100	100	7 (≈ 18 µM)	about 5 times higher
COc1ccc(/C(=C/C(=O)N2CCOCC2)c2ccc(Cl)cc2)cc1OC [E-isomer]	–	16	47	71	94	97	30 (≈ 77.3 µM)	–
COc1ccc(C(=CC(=O)N2CCOCC2)c2ccc(Cl)cc2)cc1OC [E/Z 50:50, 4-[3-(4-chlorophenyl)-3-(3,4-dimethoxyphenyl)-acryloyl]morpholine]	–	91	98	100	100	100	–	–
